# Test results: article PMC9207806 (ACS Chemical Biology, 2022)
# Read-outs that look alike come from different tables or passages of the source.
# Experiments:
# [1] = target: T1, D9 (Vaccinia virus, UniProt P04311); assay: Time-dependent fluorescence changes of probes 1a-1e on D9 cleavage; type: biochemical; details: probe 100 nM, D9 50 nM, pH 7.5 (Figure S1)
# T1 construct: His-tag (C); made in house
# Protocol: Fluorescence emission spectra were recorded using the Agilent Cary Eclipse fluorescence spectrophotometer equipped with the xenon lamp under temperature-controlled conditions. All experiments were performed at 37 °C in the Hellma quartz cuvette (10 × 4 mm) with a sample volume 1000 μL in 10 mM Tris·HCl (pH 7.5), 100 mM KOAc, 2 mM MgCl2, 0.5 mM MnCl2, and 2 mM DTT. Before each measurement, the buffer was degassed. Emission spectra were registered for all excitation maxima (detailed wavelengths for each probe: 1a—exc. 490/em. 512 nm; 1b, 1d, and 1e—345/378 nm; and 1c—420/489 nm).
# [2] = target: T1, D9; type: biochemical; details: 30 μM compound, 25 nM D9, 30 °C, 2 h, RP HPLC
# [3] = target: T2, VACV D9 decapping enzyme (Vaccinia virus, UniProt P04311); assay: biochemical; type: biochemical; details: 3 μM probe 1b, 5 nM D9, 30 °C
# T2 construct: His-tag (C); made in house
# Protocol: (§1) Point fluorescence measurements were performed using the BioTek Synergy H1 microplate reader. Before each measurement, the reaction buffer was degassed. Experiments were performed in the Greiner 96-well, black, non-binding plates at 30 °C. Before the measurement, the plate was preincubated for 15 min at 30 °C with mixing (300 rpm). The point fluorescence was registered with 1 min interval and detection at 345 nm excitation wavelength and 378 nm emission wavelength.
# Experiments to determine IC50 parameters were performed as point fluorescence measurements. Each well contained an appropriate buffer (10 mM MOPS·HCl, pH 7.0, 100 mM KOAc, containing 2 mM MgCl2, 0.3 mM MnCl2, and 2 mM DTT) with addition of 0.1% BSA, a fluorescent substrate (3 μM of probe 1b), an inhibitor (in half-logarithmic dilution, cinh ∈ 0, 100 μM), and an enzyme (5 nM of D9) to a final volume of 150 μL. To determine the IC50 values, a three parameter dose–response formula with standard hill slope from GraphPad Prism software was fitted [drawing 3] where V/V0 is the relative initial rate of the reaction, Imin and Imax are bottom and top plateaus, and Cinh is the concentration of the inhibitor.
# [4] = target: T1, D9; details: cited from earlier work
# [5] = test system: SpDcp1/Dcp2; details: cited from earlier work
# [6] = target: T3, VACV D10 (Vaccinia virus, UniProt P04312); type: biochemical
# T3 construct: made in house
# [7] = target: T4, human Dcp1/2 complex (Homo sapiens, UniProt Q8IU60); type: biochemical; details: 11 nM hDcp1/2, inhibitor up to 100 μM, 37 °C, 1 h
# T4 construct: His-tag; made in house; host or cells: E. coli BL21(DE3) RIL
# [8] = test system: C[n+]1cn([C@@H]2O[C@H](COP(=O)(O)OP(=O)([O-])OP(=O)(O)CCc3cn(CCOCCOCCNC(=O)Cc4ccc5ccc6cccc7ccc4c5c67)nn3)[C@@H](O)[C@H]2O)c2nc(N)[nH]c(=O)c21; assay: Michaelis-Menten kinetics of probe 1b hydrolysis by D9; type: biochemical, Vaccinia virus; details: other: probe 0-15 μM, 5 nM D9; means of three experiments ± SEM; pH 7.0; 30.0 °C
# Protocol: as §1
# To determine the kinetic parameters of enzymatic hydrolysis of probe 1b by D9 enzyme, point fluorescence measurements were performed. Each well of the plate contained an appropriate buffer (10 mM MOPS·HCl, pH 7.0, 100 mM KOAc, containing 2 mM MgCl2, 0.3 mM MnCl2, and 2 mM DTT) with addition of 0.1% BSA, a substrate (probe 1b at a concentration range 0–15 μM) and an enzyme (5 nM of D9) to a final volume of 150 μL. The measurement was carried out on until full saturation, which allowed us to convert the initial rates from au/min to mol/min/mg. The initial rates were calculated by fitting a linear curve to the first 10 points (10 min) of the hydrolysis reaction. […]
# [9] = in-house nucleotide library (Table S1, Figure 3), means of 3 independent experiments ± SEM, read-out: IC50, nucleotide-derived compounds, FLINT HTS assay
# [10] = read-out: IC50, nucleotide-derived compounds, FLINT HTS assay, in-house nucleotide library (Table S1, Figure 3), means of 3 independent experiments ± SEM
molecule,measurement,setting,value
"Cc1cc(C)n2c1C=C1C=CC(CNC(=O)CSP(=O)([O-])OP(=O)(O)OP(=O)(O)OC[C@H]3O[C@@H](n4c[n+](C)c5c(=O)[nH]c(N)nc54)[C@H](O)[C@@H]3O)=[N+]1[B-]2(F)F [Compound 1a, m^7GTPγS-BODIPY-FL]",time to complete hydrolysis by D9,[1],~ 40 min
"C[n+]1cn([C@@H]2O[C@H](COP(=O)(O)OP(=O)([O-])OP(=O)(O)CCc3cn(CCOCCOCCNC(=O)Cc4ccc5ccc6cccc7ccc4c5c67)nn3)[C@@H](O)[C@H]2O)c2nc(N)[nH]c(=O)c21 [Compound 1b, m^7GTP-Py]",time to complete hydrolysis by D9,[1],~ 40 min
Cn1c[n+]([C@@H]2O[C@H](COP(=O)([O-])OP(=O)(O)OP(=O)(O)O)[C@@H](O)[C@H]2O)c2nc(N)[nH]c(=O)c21 [m7GTP],susceptibility to hydrolysis by D9,[2],very poor D9 substrates
same,IC50,[3]; [9],0.77 ± 0.06 µM
same,D9 inhibition (literature),[4],less potent D9 inhibitors
C[n+]1cn([C@@H]2O[C@H](COP(=O)([S-])OP(=O)(O)OP(=O)(O)OP(=O)([S-])OC[C@H]3O[C@@H](n4c[n+](C)c5c(O)nc(N)nc54)[C@H](O)[C@@H]3O)[C@@H](O)[C@H]2O)c2nc(N)nc(O)c21 (some centres unmarked) [m7GpSpppSm7G D3],IC50,[3]; [10],3.6 ± 0.4 µM
same,inhibition of yeast decapping enzyme SpDcp1/Dcp2 (literature),[5],inhibitor
C[n+]1cn([C@@H]2O[C@H](COP(=O)(O)OP(=O)([O-])OP(=O)(O)CP(=O)(O)O)[C@@H](O)[C@H]2O)c2nc(N)nc(O)c21 [m7GpppCH2p],IC50,[3]; [10],~0.08 µM
same,inhibitory activity toward D10,[6],weak inhibitory activity
Cn1c[n+]([C@@H]2O[C@H](COP(=O)(O)OP(=O)([O-])OP(=O)(O)OC[C@H]3O[C@@H](n4cnc5c(=O)[nH]c(N)nc54)[C@H](O)[C@@H]3O)[C@@H](O)[C@H]2O)c2nc(N)[nH]c(=O)c21 [m7GpppG],susceptibility to hydrolysis by D9,[2],very poor D9 substrates
same,IC50,"[3]; LOPAC hits and reference compounds (Table 2), mean ± SEM of three experiments, read-out: IC50, inhibitors identified by HTS screening",15 ± 2 µM
same,IC50,[3]; [9],11.3 ± 1.9 µM
same,D9 inhibition (literature),[4],less potent D9 inhibitors
"CC[C@H](CO)Nc1nc(NCc2ccccc2)c2ncn(C(C)C)c2n1 [seliciclib, reference compound]",inhibitory activity toward D10,[6],very low inhibitory activity
same,inhibitory activity toward Dcp1/2,[7],very low inhibitory activity
VACV D9 decapping enzyme (Vaccinia virus WR),Km,[8],12.9 ± 2.2 µM
same,kcat/Km,[8],6300 ± 1200 M⁻¹ s⁻¹
